Experimental findings from patent publication US9326988B2, “Treatment and/or prevention of parkinson's disease dementia with ceftriaxone” (CHUNG SHAN MEDICAL UNIVERSITY, priority 2012, dated 2016) are described below.

Series [1] deals with normal rats. Briefly: Object recognition test in sham-operated rats. In kind it is in vivo, male Wistar rats. Particulars: determined 14th day (FIG. 4). The method, then: (§1) The rats in the sham-operated groups were generally subjected to the same surgical procedures for the rats in the pathological control group, the preventive groups, and the treatment groups, except that an equal volume of saline was infused bilaterally into the SNc of the mesencephalon of rats in the shame-operated groups.
(§2) 5 days before the MPTP-HCl injection, ceftriaxone (Sigma) was administered to the rats in the preventive groups 1,2 via intraperitoneal injection respectively at a daily dose of 100 mg/kg and at a daily dose of 200 mg/kg until the end of the 14th day after the MPTP-HCl injection. After the MPTP-HCl injection, ceftriaxone was administered to the rats in the treatment group 1 and the sham-operated groups 2,3 via intraperitoneal injection respectively at a daily dose of 200 mg/kg, at a daily dose of 100 mg/kg, and at a daily dose of 200 mg/kg, and saline was administered to the rats in the pathological control group and the sham-operated group 1 via intraperitoneal injection at a daily dose of 1 mL/kg. […]
The object recognition test is described as follows. […] By virtue of the video camera, the time spent by the respective rat exploring an object (i.e. the object A1, A2, A3, or B) during a trial (i.e. the first, second, third, or fourth trial) was measured. […]

Series [2] deals with normal rats. Briefly: T-maze test (working memory) in sham-operated rats. It counts as in vivo, male Wistar rats. Particulars: determined 10th day (FIG. 3). The method, then:
as §1
as §2, with “mL/kg. In addition, starting on the 3rd day after the MPTP-HCl injection, ceftriaxone was administered to the rats in the treatment groups 2,3 via intraperitoneal injection respectively at a daily dose of 100 mg/kg and at a daily dose of 200 mg/kg.” for “mL/kg.”

Take `CO/N=C(\C(=O)N[C@@H]1C(=O)N2C(C(=O)O)=C(CSc3nc(=O)c(=O)[nH]n3C)CS[C@H]12)c1csc(N)n1` [ceftriaxone, Ceftriaxone]: the “percentage of exploration time spent on object B in the fourth trial versus object A3 in the third trial” value in series [1] (sham-operated group 2: 100 mg/kg daily i.p.) and in series [1] (sham-operated group 3: 200 mg/kg daily i.p.) was “there is statistical significance” throughout. Also, the “correct response rate compared to sham-operated group 1 (saline)” value in series [2] (sham-operated group 2: 100 mg/kg daily i.p. to 14th day) and in series [2] (sham-operated group 3: 200 mg/kg daily i.p. to 14th day) was “no statistical significance” in each case.
